Experimental findings from PubChem BioAssay (NCI) are described below.

Some test systems named below: IGROV1 ovarian; A549 NSCLC; CAKI-1 renal; HCT-15 colon; OVCAR-4 ovarian; PC-3 prostate; MDA-MB-231 breast; SF-268 CNS; 786-0 renal; SF-295 CNS.
What all share (assay): NCI anticancer screen, dose series, 48 h

The structures appear in SMILES notation.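 96-well plates; 48 h exposure; 5 concentrations. Endpoints by linear interpolation between flanking doses. Not reached: highest tested concentration assigned. TGI denotes the concentration required for complete inhibition of growth.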

In the case of `O=Cc1c2c(cc3c1CC1(C3)Cc3cc4c(c(C=O)c3C1)CCCC4)CCCC2`, the TGI with IGROV1 ovarian was above 31.6 µM; in the assay on A549 NSCLC, above 31.6 µM; in the assay with CAKI-1 renal, above 100 µM; in the assay with HCT-15 colon, above 31.6 µM; in the assay with OVCAR-4 ovarian, above 31.6 µM; in the assay on PC-3 prostate, above 31.6 µM. Further, the TGI in the assay with MDA-MB-231 breast is above 31.6 µM; in the assay with SF-268 CNS, above 100 µM; in the assay on 786-0 renal it was above 31.6 µM; in the assay with SF-295 CNS, above 31.6 µM.

On to `N/C(=N\N=C\c1cc2ccccc2s1)c1cnccn1`, for which the TGI with IGROV1 ovarian, in the assay with A549 NSCLC, in the assay with CAKI-1 renal, in the assay on HCT-15 colon, in the assay with OVCAR-4 ovarian and with PC-3 prostate was above 100 µM each time. In addition, the TGI in the assay with MDA-MB-231 breast, in the assay on SF-268 CNS, in the assay on 786-0 renal and in the assay with SF-295 CNS was above 100 µM throughout.

Regarding `Cc1sc2c(c1C)C(=O)c1cccn1-2`, the TGI in the assay on IGROV1 ovarian, in the assay on A549 NSCLC, in the assay with CAKI-1 renal, in the assay on HCT-15 colon, in the assay with OVCAR-4 ovarian and with PC-3 prostate was above 100 µM throughout. Also, the TGI in the assay on MDA-MB-231 breast, in the assay with SF-268 CNS, in the assay with 786-0 renal and in the assay on SF-295 CNS was above 100 µM each time.

Consider `Clc1ccc(Nc2ncco2)cc1Cl`, for which the TGI with IGROV1 ovarian, with A549 NSCLC, with CAKI-1 renal, with HCT-15 colon, in the assay on OVCAR-4 ovarian and in the assay with PC-3 prostate was above 10 µM in each case. Further, the TGI in the assay with MDA-MB-231 breast, in the assay on SF-268 CNS, in the assay with 786-0 renal and in the assay on SF-295 CNS was above 10 µM each time.

As for `CCO/C(O)=C(/C(=N)N1CCOCC1)C(=O)Nc1cccc(C(F)(F)F)c1`, the TGI in the assay with IGROV1 ovarian, in the assay on A549 NSCLC, in the assay on CAKI-1 renal, in the assay on HCT-15 colon, with OVCAR-4 ovarian and in the assay with PC-3 prostate was above 100 µM throughout. Besides, the TGI with MDA-MB-231 breast, in the assay with SF-268 CNS, in the assay on 786-0 renal and in the assay on SF-295 CNS was above 100 µM each time.

Consider `COc1c(C)c(C/C=C(\C)CC/C=C(\C)CC/C=C(\C)CCC=C(C)C)c(OC)c(OC)c1OC`, for which the TGI in the assay with IGROV1 ovarian, with A549 NSCLC, in the assay on CAKI-1 renal, with HCT-15 colon, with OVCAR-4 ovarian and with PC-3 prostate was above 100 µM throughout. Further, the TGI in the assay on MDA-MB-231 breast, with SF-268 CNS, with 786-0 renal and with SF-295 CNS was above 100 µM throughout.

In the case of `COc1ccccc1C1C2=C(COC2=O)Oc2cc3c(cc21)OCO3` (stereo not given), the TGI with IGROV1 ovarian was above 100 µM; in the assay on A549 NSCLC, above 100 µM; with CAKI-1 renal, above 100 µM; with HCT-15 colon, above 84.6 µM; with OVCAR-4 ovarian it was above 100 µM; in the assay on PC-3 prostate, above 100 µM. Also, the TGI was above 87.6 µM in the assay on MDA-MB-231 breast, 85.8 µM with SF-268 CNS, 28 µM in the assay with 786-0 renal and 12.6 µM in the assay with SF-295 CNS.

Regarding `Cn1c(N/N=C/c2ccccc2)nc(-c2ccc3c(c2)OCO3)c(C#N)c1=O`, the TGI in the assay on IGROV1 ovarian, in the assay with A549 NSCLC, with CAKI-1 renal, in the assay with HCT-15 colon, in the assay with OVCAR-4 ovarian and in the assay on PC-3 prostate was above 100 µM each time. The TGI in the assay with MDA-MB-231 breast, in the assay with SF-268 CNS, in the assay on 786-0 renal and in the assay with SF-295 CNS was above 100 µM in each case.

On to `NC(Cc1ccc(O)cn1)C(=O)NC(C(=O)O)c1ccccc1` (stereo not given), for which the TGI in the assay on IGROV1 ovarian, in the assay on A549 NSCLC, in the assay on CAKI-1 renal, in the assay on HCT-15 colon, with OVCAR-4 ovarian and with PC-3 prostate was above 100 µM each time. The TGI with MDA-MB-231 breast, in the assay on SF-268 CNS, in the assay with 786-0 renal and in the assay with SF-295 CNS was above 100 µM throughout.

Regarding `CC[C@H](C)[C@H](NC(=O)N(CCC#N)CCN(CCN(C(=O)N[C@@H](Cc1ccccc1)C(=O)OC)c1ccccc1)C(=O)N[C@H](C(=O)OC)C(C)C)C(=O)OC`, the TGI in the assay on IGROV1 ovarian was 45.9 µM; in the assay with A549 NSCLC, above 100 µM; with CAKI-1 renal, 35.3 µM; in the assay on HCT-15 colon it was 51.6 µM; in the assay with OVCAR-4 ovarian, 62 µM; in the assay with PC-3 prostate it was 47.7 µM. Moreover, the TGI in the assay on MDA-MB-231 breast amounted to 47.1 µM; in the assay with SF-268 CNS it was 44.4 µM; in the assay on 786-0 renal, 17.1 µM; in the assay with SF-295 CNS, 37.9 µM.

In the case of `Oc1cc(O)c2c(c1)O[C@H](c1ccc(O)c(O)c1)[C@@H](O)C2`, the TGI with IGROV1 ovarian, in the assay with A549 NSCLC, in the assay on CAKI-1 renal, with HCT-15 colon, with OVCAR-4 ovarian and in the assay on PC-3 prostate was above 100 µM each time. The TGI with MDA-MB-231 breast, with SF-268 CNS, in the assay on 786-0 renal and in the assay on SF-295 CNS was above 100 µM throughout.

On to `C=CCn1c(-c2cc(C(C)(C)C)c(O)c(C(C)(C)C)c2)cs/c1=N\C(P(=O)(O)O)P(=O)(O)O`, for which the TGI in the assay on IGROV1 ovarian, with A549 NSCLC, with CAKI-1 renal, with HCT-15 colon, in the assay with OVCAR-4 ovarian and in the assay on PC-3 prostate was above 100 µM each time. The TGI in the assay with MDA-MB-231 breast, in the assay with SF-268 CNS, in the assay with 786-0 renal and in the assay on SF-295 CNS was above 100 µM each time.

As to `O=c1oc2ccc([N+](=O)[O-])cc2nc1/C=C(\O)c1ccccc1`, the TGI with IGROV1 ovarian, with A549 NSCLC, in the assay with CAKI-1 renal, in the assay on HCT-15 colon, in the assay with OVCAR-4 ovarian and in the assay with PC-3 prostate was above 100 µM each time. Besides, the TGI with MDA-MB-231 breast, in the assay on SF-268 CNS, with 786-0 renal and in the assay with SF-295 CNS was above 100 µM throughout.

`N=c1c2sc3nc4ccccc4n3c2ncn1Cc1ccccc1`: the TGI with IGROV1 ovarian, with A549 NSCLC, in the assay with CAKI-1 renal, in the assay on HCT-15 colon, in the assay on OVCAR-4 ovarian and in the assay on PC-3 prostate was above 100 µM in each case. In addition, the TGI in the assay with MDA-MB-231 breast, in the assay with SF-268 CNS, in the assay with 786-0 renal and with SF-295 CNS was above 100 µM in each case.

Regarding `CN1C(=O)c2ccccc2C(O)(c2ccccc2)C1(O)c1ccccc1` (stereo not given), the TGI in the assay with IGROV1 ovarian, in the assay with A549 NSCLC, with CAKI-1 renal, with HCT-15 colon, in the assay with OVCAR-4 ovarian and in the assay on PC-3 prostate was above 100 µM throughout. Moreover, the TGI in the assay with MDA-MB-231 breast, with SF-268 CNS, in the assay on 786-0 renal and with SF-295 CNS was above 100 µM in each case.

Consider `COc1ccccc1-n1cnc2c1NC(C)(C)N=C2C(N)=O`, for which the TGI with IGROV1 ovarian, in the assay with A549 NSCLC, with CAKI-1 renal, with HCT-15 colon, in the assay with OVCAR-4 ovarian and in the assay with PC-3 prostate was above 100 µM each time. The TGI with MDA-MB-231 breast, with SF-268 CNS, in the assay on 786-0 renal and with SF-295 CNS was above 100 µM throughout.

`O=C(N/N=C(/COc1ccccc1)N=Cc1ccncc1)c1ccncc1`: the TGI in the assay on IGROV1 ovarian, in the assay on A549 NSCLC, in the assay on CAKI-1 renal, in the assay with HCT-15 colon, in the assay on OVCAR-4 ovarian and with PC-3 prostate was above 100 µM each time. In addition, the TGI in the assay with MDA-MB-231 breast, in the assay with SF-268 CNS, in the assay with 786-0 renal and with SF-295 CNS was above 100 µM throughout.

Take `Cc1cc(OCc2nc(N)nc(N)c2-c2ccc(Cl)c(Cl)c2)ccc1[N+](=O)[O-]`: the TGI in the assay on IGROV1 ovarian was above 41.1 µM; in the assay on A549 NSCLC, above 100 µM; with CAKI-1 renal it was 31.8 µM; in the assay with HCT-15 colon, 27.4 µM; with OVCAR-4 ovarian, 39.1 µM; in the assay with PC-3 prostate, 11.7 µM. Further, the TGI is 7.24 µM in the assay on MDA-MB-231 breast, 36.5 µM in the assay on SF-268 CNS, 22.3 µM in the assay on 786-0 renal and 4.72 µM with SF-295 CNS.

On to `CN(C)c1ccc(/C=C/C(=O)c2cc(C(C)(C)C)c(O)c(C(C)(C)C)c2)cc1`, for which the TGI with IGROV1 ovarian is above 100 µM; in the assay on A549 NSCLC it was above 100 µM; in the assay with CAKI-1 renal, above 58.5 µM; in the assay with HCT-15 colon, above 100 µM; in the assay on OVCAR-4 ovarian, above 100 µM; in the assay with PC-3 prostate, above 100 µM. The TGI is 8.69 µM in the assay with MDA-MB-231 breast, above 52.1 µM with SF-268 CNS, 8.03 µM in the assay with 786-0 renal and 5.33 µM in the assay with SF-295 CNS.

`CN1C(=O)N(C)C2(CCN(CC(CC3OCCO3)c3ccc(F)cc3)CC2)C1=O` (stereo not given): the TGI with IGROV1 ovarian, in the assay with A549 NSCLC, in the assay on CAKI-1 renal, with HCT-15 colon, in the assay on OVCAR-4 ovarian and in the assay with PC-3 prostate was above 100 µM throughout. The TGI in the assay on MDA-MB-231 breast, in the assay on SF-268 CNS, with 786-0 renal and with SF-295 CNS was above 100 µM throughout.
